In publication PMC9863562, “Design, Synthesis, and Biological Evaluation of 2-Mercaptobenzoxazole Derivatives as Potential Multi-Kinase Inhibitors” (Pharmaceuticals, 2023):

Legend:
[1] = system: HepG2 cells (hepatocellular carcinoma); assay: MTT cytotoxicity assay, HepG2; assay type: cell-based; conditions: Homo sapiens, HepG2, 24 h, 24 h treatment, read-out: In Vitro Cytotoxicity IC50 HepG2
From the text: (§1) The in vitro cytotoxicity for the final target compounds, 4(a–d), 5(a–f), and 6(a–b), was preliminarily evaluated via the MTT colorimetric assay against a panel of four human cell lines, namely, the hepatocellular carcinoma (HepG2), mammary gland (MCF-7), breast cancer (MDA-MB-231) and epithelioid cervix carcinoma (HeLa).
(§2) The cytotoxicity of the target hybrids was examined by an MTT assay against HepG2, HeLa, MCF-7, and MDA-MB-231. At first, the RPMI-1640 medium with 10% fetal bovine serum was used to cultivate the cell lines. Then, antibiotics (penicillin (100 units/mL) and streptomycin (100 µg/mL)) were added in a 37 °C incubator in 5% CO2. The cell lines were seeded in a 96-well plate at a density of 1.0 × 10^4 cells/well at 37 °C under 5% CO2 for 48 h. After incubation, the cells were treated with various concentrations of the synthesized compounds and incubated for an additional 24 h. Following the drug treatment, 20 µL of 5 mg/mL MTT solution was added and incubated for 4 h. To dissolve the purple formazan that had formed, 100 µL dimethyl sulfoxide (DMSO) was added to each well. At a wavelength of 570 nm, the colorimetric assay was recorded and measured, using a plate reader BioTek EXL 800 (Agilent Technologies, Inc., Santa Clara, CA, USA). The percentage of relative cell viability was counted using the following formula (A570 of handled specimens/A570 of the unhandled specimen), multiplied by 100. The results of the cytotoxicity value were presented as the median growth inhibitory concentration (IC50) of the reagents compared to the control.

[2] = system: MCF-7 cells (mammary gland cancer); assay: MTT cytotoxicity assay, MCF-7; assay type: cell-based; conditions: Homo sapiens, MCF7, 24 h treatment, read-out: In Vitro Cytotoxicity IC50 MCF-7
Experimental: (§3) After incubation, the cells were treated with various concentrations of the synthesized compounds and incubated for an additional 24 h. Following the drug treatment, 20 µL of 5 mg/mL MTT solution was added and incubated for 4 h. To dissolve the purple formazan that had formed, 100 µL dimethyl sulfoxide (DMSO) was added to each well. […] The percentage of relative cell viability was counted using the following formula (A570 of handled specimens/A570 of the unhandled specimen), multiplied by 100.

[3] = system: MDA-MB-231 cells (breast cancer); assay: MTT cytotoxicity assay, MDA-MB-231; assay type: cell-based; conditions: Homo sapiens, 24 h treatment, read-out: In Vitro Cytotoxicity IC50 MDA-MB-231
Experimental: as §3

[4] = system: HeLa cells (epithelioid cervix carcinoma); assay: MTT cytotoxicity assay, HeLa; assay type: cell-based; conditions: Homo sapiens, 24 h treatment, read-out: In Vitro Cytotoxicity IC50 Hela
Experimental: as §3

[5] = system: HepG2, MCF-7, MDA-MB-231 and HeLa cell lines; assay: MTT cytotoxicity assay, panel of four cell lines; assay type: cell-based; conditions: Homo sapiens, range over HepG2, MCF-7, MDA-MB-231, HeLa, read-out: IC50 values, range over the tested cell lines
From the text: as §1, §2

SMILES | melting point | IC50 [1] | IC50 [2] | IC50 [3] | IC50 [4] | IC50 [5]
COc1cc(C=NNC(=O)CSc2nc3ccccc3o2)ccc1O (mixture of isomers) [Compound 4d, (E/Z)-N′-(4-hydroxy-3-methoxybenzylidene)-2-(benzo[d]oxazol-2-ylthio)acetohydrazide] | 150 to 153 °C | 9.37 ± 0.7 µM | 11.1 ± 0.9 µM | 4.93 ± 0.2 µM | 12.9 ± 0.9 µM | 2.14 to 12.9 µM
O=C(CSc1nc2ccccc2o1)NN=Cc1ccc(OC(F)(F)F)cc1 (mixture of isomers) [Compound 4b, (E/Z)-N′-(4-(trifluoromethoxy)benzylidene)-2-(benzo[d]oxazol-2-ylthio)acetohydrazide] | 154 to 156 °C | 13.1 ± 1.1 µM | 15.2 ± 1.2 µM | 9.72 ± 0.7 µM | 19.3 ± 1.6 µM | –
N#Cc1ccc(C=NNC(=O)CSc2nc3ccccc3o2)cc1 (mixture of isomers) [Compound 4c, (E/Z)-N′-(4-cyanobenzylidene)-2-(benzo[d]oxazol-2-ylthio)acetohydrazide] | 246 to 248 °C | 34.5 ± 2.2 µM | 38.6 ± 2.5 µM | 21.1 ± 1.6 µM | 35.2 ± 2.5 µM | –
O=C(CSc1nc2ccccc2o1)NN=Cc1ccc(Cl)c(Cl)c1 (mixture of isomers) [Compound 4a, (E/Z)-N′-(3,4-dichlorobenzylidene)-2-(benzo[d]oxazol-2-ylthio)acetohydrazide] | 193 to 195 °C | 81.2 ± 3.7 µM | 74.2 ± 3.5 µM | 75.5 ± 3.6 µM | 67.6 ± 3.4 µM | –

Second part, led by results:

melting point | SMILES | IC50 [1] | IC50 [2] | IC50 [3] | IC50 [4] | IC50 [5]
165 to 167 °C | O=C(CSc1nc2ccccc2o1)NN=C1C(=O)Nc2ccc([N+](=O)[O-])cc21 [Compound 5c, (E/Z)-2-(benzo[d]oxazol-2-ylthio)-N′-(5-nitro-2-oxoindolin-3-ylidene)acetohydrazide] | 56.2 ± 2.9 µM | 48.3 ± 2.8 µM | 62.4 ± 3.1 µM | 50.6 ± 2.9 µM | –
225 to 227 °C | O=C(CSc1nc2ccccc2o1)NN=C1C(=O)Nc2ccc(F)cc21 [Compound 5f, (E/Z)-2-(benzo[d]oxazol-2-ylthio)-N′-(5-fluoro-2-oxoindolin-3-ylidene)acetohydrazide] | 63.7 ± 3.2 µM | 70.3 ± 3.3 µM | 68.1 ± 3.5 µM | 59.2 ± 3.1 µM | –
145 to 147 °C | COc1ccc2c(c1)C(=NNC(=O)CSc1nc3ccccc3o1)C(=O)N2 [Compound 5d, (E/Z)-2-(benzo[d]oxazol-2-ylthio)-N′-(5-methoxy-2-oxoindolin-3-ylidene)acetohydrazide] | 10.5 ± 0.9 µM | 7.58 ± 0.6 µM | 8.44 ± 0.6 µM | 6.27 ± 0.7 µM | 2.14 to 12.9 µM
223 to 225 °C | O=C(CSc1nc2ccccc2o1)NN=C1C(=O)Nc2ccccc21 [Compound 5a, (E/Z)-2-(benzo[d]oxazol-2-ylthio)-N′-(2-oxoindolin-3-ylidene)acetohydrazide] | 18 ± 1.3 µM | 23.5 ± 1.8 µM | 14.6 ± 1.2 µM | 28.9 ± 2 µM | –
230 to 233 °C | Cc1ccc2c(c1)C(=NNC(=O)CSc1nc3ccccc3o1)C(=O)N2 [Compound 5b, (E/Z)-2-(benzo[d]oxazol-2-ylthio)-N′-(5-methyl-2-oxoindolin-3-ylidene)acetohydrazide] | 41.7 ± 2.4 µM | 27.4 ± 2 µM | 36.2 ± 2.4 µM | 31.5 ± 2.3 µM | –
264 to 267 °C | O=C(CSc1nc2ccccc2o1)NN=C1C(=O)Nc2ccc(Cl)cc21 [Compound 5e, (E/Z)-2-(benzo[d]oxazol-2-ylthio)-N′-(5-chloro-2-oxoindolin-3-ylidene)acetohydrazide] | 45.2 ± 2.7 µM | 53 ± 3.1 µM | 51.5 ± 2.8 µM | 58.4 ± 3.2 µM | –
218 to 221 °C | O=C(CSc1nc2ccccc2o1)NN=Cc1cccs1 (mixture of isomers) [Compound 6a, (E/Z)-2-(benzo[d]oxazol-2-ylthio)-N′-((thiophen-2-yl)methylene)acetohydrazide] | 26.4 ± 1.8 µM | 42.9 ± 2.8 µM | 30.8 ± 2.2 µM | 46.4 ± 2.7 µM | –
